Like-named read-outs stand apart in the source and are kept apart here.
What was measured:
[1] = Cell viability assay (EZ-Cytox) in HepAD38 cells; format: cell-based; settings: human, 65 hours of treatment; for CC50 at 65 h: read-out: Cytotoxicity CC50; for viability at 65 h, 100 µM: read-out: Cytotoxicity % Livability (@100 μM)
Procedure: HepAD38 cells were cultured for 2 days in Dulbecco's Modified Eagle's medium (Welgene, LM001-05) supplemented with 10% FBS without tetracycline. The cells were seeded in 48-well culture plates (1×10^5 cells/well) and treated with each compound at five concentrations (0 μM (0.8% DMSO as a control), 33 μM, 50 μM, 66 μM, and 100 μM). After 65 hours of treatment, viability was measured using EZ-Cytox cell viability assay kit (Daeil Lab Service) according to the manufacturer's instructions. The absorbance was measured at 450 nm using a spectrophotometer (Spark, Tecan). Here, NVR-3-778 (denoted as NVR) was used as a positive control.

[2] = molecular target: Protein (capsid assembly) (Hepatitis B virus genotype D subtype ayw, UniProt P03146); assay: Protein inhibition (capsid assembly inhibition), Table 1; format: biochemical; settings: for EC50: NVR value of the same run in brackets, read-out: Protein EC50
Protein (capsid assembly), sequence (P03146 whole entry): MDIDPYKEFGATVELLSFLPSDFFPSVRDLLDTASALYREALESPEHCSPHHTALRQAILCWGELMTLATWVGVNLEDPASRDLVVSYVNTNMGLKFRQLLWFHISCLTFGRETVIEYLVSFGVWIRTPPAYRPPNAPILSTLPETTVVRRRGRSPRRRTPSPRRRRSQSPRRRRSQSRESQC

[3] = test system: intracellular HBV DNA; assay: Real-time PCR for intracellular HBV DNA in HepAD38 cells; format: cell-based, hepatitis B virus (HBV); settings: Hepatitis B virus, HePAD38, 65 h, treated for 65 hours, intracellular HBV DNA by real-time PCR
Procedure: HepAD38 cells were cultured in DMEM medium (Welgene) supplemented with 200 unit/mL penicillin, 200 μg/mL streptomycin, and 10% FBS. During maintenance and passage, the cells were cultured together with 0.4 μg/mL tetracycline. Two days before the treatment with compounds for inducing HBV replication was started, the medium was replaced with a tetracycline-free complete growth medium. […]
HepAD38 cells were treated with a compound for 65 hours and then recovered, and intracellular HBV DNA was extracted therefrom according to the protocol in the DNeasy Blood & Tissue Kit (Qiagen). The primers and probes used to quantify HBV DNA were 5′-[…]-3′, 5′-[…]-3′, and 5′-/56-FAM/TGT CCT GGT/ZEN/[…]/3IABKFQ/-3′. The HBV DNA was amplified by real-time PCR assay using LightCycler 480 (Roche) (J. Virol., 2018, 92(16):e00339-18). All of the processes were confirmed in duplicate.

[4] = @30 μM, read-out: Protein % inhibition rate (@30 μM)

With `O=C(Nc1ccc(F)c(Cl)c1)N(Cc1nnc2n1CCCCC2)c1ccon1` [Example 36, 3-(3-Chloro-4-fluorophenyl)-1-(isoxazol-3-yl)-1-((6,7,8,9-tetrahydro-5H-[1,2,4]triazolo[4,3-a]azepin-3-yl)methyl)urea] the CC50 at 65 h [1] was over 100000 nM, the viability at 65 h, 100 µM [1] was 90.4% and the inhibition at 30 µM [2, 4] was 77.6%. It also gave an EC50 [2] of 1500 nM and an IC50 [3] of 400 nM.
For `COc1ccc(N(Cc2nnc3n2CCCCC3)C(=O)Nc2ccc(F)c(Cl)c2)cc1` [Example 3, 3-(3-Chloro-4-fluorophenyl)-1-(4-methoxyphenyl)-1-((6,7,8,9-tetrahydro-5H-[1,2,4]triazolo[4,3-a]azepin-3-yl)methyl)urea], the CC50 at 65 h [1] was over 100000 nM, the viability at 65 h, 100 µM [1] was 91.9% and the inhibition at 30 µM [2, 4] was 89%. It also gave an EC50 [2] of 1600 nM and an IC50 [3] of 190 nM.
Work on `CC(C)Oc1ccc(N(Cc2nnc3n2CCCCC3)C(=O)Nc2ccc(F)c(Cl)c2)cc1` [Example 12, 3-(3-Chloro-4-fluorophenyl)-1-(4-isopropoxyphenyl)-1-((6,7,8,9-tetrahydro-5H-[1,2,4]triazolo[4,3-a]azepin-3-yl)methyl)urea] yielded a CC50 at 65 h [1] of over 100000 nM, a viability at 65 h, 100 µM [1] of 93.2% and an inhibition at 30 µM [2, 4] of 95%. The EC50 [2] was 2500 nM and the IC50 [3] was 110 nM.
For `O=C(Nc1ccc(F)c(Cl)c1)N(Cc1nnc2n1CCOCC2)c1ccc2c(c1)OCO2` [Example 7, 1-(Benzo[d][1,3]dioxol-5-yl)-3-(3-chloro-4-fluorophenyl)-1-((5,6,8,9-tetrahydro-[1,2,4]triazolo[4,3-d][1,4]oxazepin-3-yl)methyl)urea], the CC50 at 65 h [1] was over 100000 nM, the viability at 65 h, 100 µM [1] was 96.4% and the inhibition at 30 µM [2, 4] was 80%. For the same compound, the EC50 [2] was 1000 nM and the IC50 [3] was 30 nM.
`N#Cc1cccc(NC(=O)N(Cc2nnc3n2CCCCC3)c2ccc3c(c2)OCO3)c1` [Example 8, 1-(Benzo[d][1,3]dioxol-5-yl)-3-(3-cyanophenyl)-1-((6,7,8,9-tetrahydro-5H-[1,2,4]triazolo[4,3-a]azepin-3-yl)methyl)urea] showed a CC50 at 65 h [1] of over 100000 nM, a viability at 65 h, 100 µM [1] of 91.6% and an inhibition at 30 µM [2, 4] of 83%. The EC50 [2] was 1800 nM and the IC50 [3] was 270 nM.
With `CC(c1nnc2n1CCOCC2)N(C(=O)Nc1ccc(F)c(Cl)c1)c1ccc2c(c1)OCO2` (stereo not drawn) [Example 33, 1-(Benzo[d][1,3]dioxol-5-yl)-3-(3-chloro-4-fluorophenyl)-1-(1-(5,6,8,9-tetrahydro-[1,2,4]triazolo[4,3-d][1,4]oxazepin-3-yl)ethyl)urea] the CC50 at 65 h [1] was over 100000 nM, the viability at 65 h, 100 µM [1] was 88.3% and the inhibition at 30 µM [2, 4] was 26%. The EC50 [2] was 4300 nM and the IC50 [3] was 360 nM.
Work on `O=C(Nc1ccc(F)c(Cl)c1)N(Cc1nnc2n1CCCCC2)c1ccc2c(c1)OCO2` [Example 2, 1-(Benzo[d][1,3]dioxol-5-yl)-3-(3-chloro-4-fluorophenyl)-1-((6,7,8,9-tetrahydro-5H-[1,2,4]triazolo[4,3-a]azepin-3-yl)methyl)urea] yielded a CC50 at 65 h [1] of over 100000 nM, a viability at 65 h, 100 µM [1] of 100% and an inhibition at 30 µM [2, 4] of 81%. For the same compound, the IC50 [3] was 40 nM.
With `O=C(Nc1ccc(F)c(Cl)c1)N(Cc1nnc2n1CCCCC2)c1ccc(C(F)(F)F)cc1` [Example 13, 3-(3-Chloro-4-fluorophenyl)-1-((6,7,8,9-tetrahydro-5H-[1,2,4]triazolo[4,3-a]azepin-3-yl)methyl)-1-(4-(trifluoromethyl)phenyl)urea] the CC50 at 65 h [1] was over 100000 nM, the viability at 65 h, 100 µM [1] was 106% and the inhibition at 30 µM [2, 4] was 89%. The EC50 [2] was 5000 nM and the IC50 [3] was 230 nM.
For `COc1ccc(N(Cc2nnc(-c3ccccc3)n2C)C(=O)Nc2ccc(F)c(Cl)c2)cc1` [Example 24, 3-(3-Chloro-4-fluorophenyl)-1-(4-methoxyphenyl)-1-((4-methyl-5-phenyl-4H-1,2,4-triazol-3-yl)methyl)urea], the CC50 at 65 h [1] was over 100000 nM, the inhibition at 30 µM [2, 4] was -1% and the IC50 [3] was over 3300 nM.
`COc1ccc(N(Cc2nnc(C)n2C(C)C)C(=O)Nc2ccc(F)c(Cl)c2)cc1` [Example 26, 3-(3-Chloro-4-fluorophenyl)-1-((4-isopropyl-5-methyl-4H-1,2,4-triazol-3-yl)methyl)-1-(4-methoxyphenyl)urea] showed a CC50 at 65 h [1] of over 100000 nM, a viability at 65 h, 100 µM [1] of 91.5% and an EC50 [2] of 6200 nM. The inhibition at 30 µM ([2]; read-out: Protein % inhibition rate (@30 μM), @30 μM) was 2% and the IC50 [3] was 184 nM.
For `COc1ccc(N(Cc2nnc(C(F)F)n2CCO)C(=O)Nc2ccc(F)c(Cl)c2)cn1` [Example 53, 3-(3-Chloro-4-fluorophenyl)-1-((5-(difluoromethyl)-4-(2-hydroxyethyl)-4H-1,2,4-triazol-3-yl)methyl)-1-(6-methoxypyridin-3-yl)urea], the CC50 at 65 h [1] was over 100000 nM, the viability at 65 h, 100 µM [1] was 99.1% and the IC50 [3] was over 1100 nM.
`COc1ccc(N(Cc2nnc(C(F)(F)F)n2C)C(=O)Nc2ccc(F)c(Cl)c2)cn1` [Example 49, 3-(3-Chloro-4-fluorophenyl)-1-(6-methoxypyridin-3-yl)-1-((4-methyl-5-(trifluoromethyl)-4H-1,2,4-triazol-3-yl)methyl)urea] showed a CC50 at 65 h [1] of over 100000 nM, a viability at 65 h, 100 µM [1] of 55.9% and an IC50 [3] of 438 nM.
Work on `COc1ccc(N(C(=O)Nc2ccc(F)c(Cl)c2)C(C)c2nnc3n2CCCCC3)cc1` (stereo not drawn) [Example 23, 3-(3-Chloro-4-fluorophenyl)-1-(4-methoxyphenyl)-1-(1-(6,7,8,9-tetrahydro-5H-[1,2,4]triazolo[4,3-a]azepin-3-yl)ethyl)urea] yielded a CC50 at 65 h [1] of over 100000 nM, a viability at 65 h, 100 µM [1] of 95.1% and an inhibition at 30 µM [2, 4] of 47%. The EC50 [2] was 3100 nM and the IC50 [3] was 320 nM.
Compound `O=C(Nc1cccc(Cl)c1)N(Cc1nnc2n1CCCC2)c1ccc2c(c1)OCO2` [Example 41, 1-(Benzo[d][1,3]dioxol-5-yl)-3-(3-chlorophenyl)-1-((5,6,7,8-tetrahydro-[1,2,4]triazolo[4,3-a]pyridin-3-yl)methyl)urea] has a CC50 at 65 h [1] of over 100000 nM, a viability at 65 h, 100 µM [1] of 97.1% and an inhibition at 30 µM [2, 4] of 59%. The EC50 [2] was 2900 nM and the IC50 [3] was 230 nM.
Compound `O=C(Nc1ccc(F)c(Cl)c1)N(Cc1nnc2n1CCCCC2)c1ccc2ncsc2c1` [Example 16, 1-(Benzo[d]thiazol-6-yl)-3-(3-chloro-4-fluorophenyl)-1-((6,7,8,9-tetrahydro-5H-[1,2,4]triazolo[4,3-a]azepin-3-yl)methyl)urea] has a CC50 at 65 h [1] of over 100000 nM, a viability at 65 h, 100 µM [1] of 93.9% and an inhibition at 30 µM [2, 4] of 80.9%. It also gave an EC50 [2] of 2200 nM and an IC50 [3] of 124 nM.
For `O=C(Nc1ccc(F)c(Cl)c1)N(Cc1nnc2n1CCCCC2)c1ccc(F)c(F)c1` [Example 22, 3-(3-Chloro-4-fluorophenyl)-1-(3,4-difluorophenyl)-1-((6,7,8,9-tetrahydro-5H-[1,2,4]triazolo[4,3-a]azepin-3-yl)methyl)urea], the CC50 at 65 h [1] was over 100000 nM, the viability at 65 h, 100 µM [1] was 92.9% and the inhibition at 30 µM [2, 4] was 43%. The EC50 [2] was 2600 nM and the IC50 [3] was 400 nM.
For `O=C(Nc1ccc(F)c(Cl)c1)N(Cc1nnc2n1CCOC2)c1ccc2c(c1)OCO2` [Example 42, 1-(Benzo[d][1,3]dioxol-5-yl)-3-(3-chloro-4-fluorophenyl)-1-((6,8-dihydro-5H-[1,2,4]triazolo[3,4-c][1,4]oxazin-3-yl)methyl)urea], the CC50 at 65 h [1] was over 100000 nM, the viability at 65 h, 100 µM [1] was 83.7% and the “Protein % inhibition rate (@30 μM)” value ([2]; @30 μM) was 20%. For the same compound, the EC50 [2] was 6800 nM and the IC50 [3] was 210 nM.

— US20250235462A1, “NOVEL CAPSID ASSEMBLY INHIBITORS” (AM SCIENCES INC, priority 2021, published 2025)
